Experimental data from patent publication US20090082337A1, “Compositions Comprising Quinolone and Methods for Treating or Controlling Infections” (priority 2007, published 2009).
Values after ≈ are worked out from the molar mass of the structure shown. Like-named read-outs stand apart in the source and are kept apart here.

Key:
Format in all cases: cell-based
[1] = system: Acinetobacter calcoaceticus (IFO 12552); experiment: In vitro anti-bacterial activity (MIC90), Gram-negative bacteria; details: IFO12552, Gram-negative reference strain
Experimental: (§1) In yet another aspect, said another quinolone has a MIC90 value for a Gram-negative bacterium that is lower than that of the fluoroquinolone having Formula I, II, III, IV, V, VI, VII, or VIII for the same bacterium, said fluoroquinolone being included in the composition. MIC90 is the minimum concentration of the active compound required to inhibit ninety percent of the growth of a specified pathogen, in μg/ml.
(§2) Anti-bacterial activity of the compound having Formula IV was tested against several Gram-negative reference bacteria strains and compared to the anti-bacterial activity of three commercially available antibiotics (nadifloxacin, ofloxacin, and sparfloxacin). The results are shown in Table 2 as MIC90 values (minimum concentration of the active compound required to inhibit ninety percent of the growth of a specified pathogen, in μg/ml).

[2] = system: Enterobacter aerogenes (IFO 13534); experiment: as above; details: Klebsiella aerogenes, IFO13534, Gram-negative reference strain
Experimental: as §1, §2

Escherichia coli (O-1) = experiment: as above; details: Gram-negative reference strain
Experimental: as §1, §2

[3] = system: Klebsiella pneumoniae (IFO 13541); experiment: as above; details: IFO13541, Gram-negative reference strain
Experimental: as §1, §2

[4] = system: Proteus mirabilis (IFO 13300); experiment: as above; details: IFO13300, Gram-negative reference strain
Experimental: as §1, §2

Proteus rettgeri = experiment: as above; details: Providencia rettgeri, Gram-negative reference strain
Experimental: as §1, §2

[5] = system: Pseudomonas aeruginosa (ATCC 27853); experiment: as above; details: ATCC27853, Gram-negative reference strain
Experimental: as §1, §2

[6] = system: Pseudomonas aeruginosa (IFO 13736); experiment: as above; details: IFO13736, Gram-negative reference strain
Experimental: as §1, §2

[7] = system: Serratia marcenscens (NHL); experiment: as above; details: Gram-negative reference strain
Experimental: as §1, §2

Shigella flexneri (2b) = experiment: as above; details: Gram-negative reference strain
Experimental: as §1, §2

[8] = system: Bacillis subtilis (ATCC 6633); experiment: In vitro anti-bacterial activity (MIC90), Gram-positive bacteria; details: Gram-positive reference strain
Experimental: as §1, with “μg/ml. Anti-bacterial activity of the compound having Formula […] was tested against several Gram-positive reference bacteria strains and compared to the anti-bacterial activity of three commercially available antibiotics (nadifloxacin, ofloxacin, and sparfloxacin).” for “μg/ml.”

[9] = system: Sarcina lutea (ATCC 9341); experiment: as above; details: Micrococcus luteus, ATCC9341, Gram-positive reference strain
Experimental: as §1, with “μg/ml. Anti-bacterial activity of the compound having Formula […] was tested against several Gram-positive reference bacteria strains and compared to the anti-bacterial activity of three commercially available antibiotics (nadifloxacin, ofloxacin, and sparfloxacin).” for “μg/ml.”

[10] = system: Staphylococcus aureus (ATCC 25933); experiment: as above; details: ATCC25933, Gram-positive reference strain
Experimental: as §1, with “μg/ml. Anti-bacterial activity of the compound having Formula […] was tested against several Gram-positive reference bacteria strains and compared to the anti-bacterial activity of three commercially available antibiotics (nadifloxacin, ofloxacin, and sparfloxacin).” for “μg/ml.”

[11] = system: Staphylococcus aureus (FDA 209P); experiment: as above; details: FDA209P, Gram-positive reference strain
Experimental: as §1, with “μg/ml. Anti-bacterial activity of the compound having Formula […] was tested against several Gram-positive reference bacteria strains and compared to the anti-bacterial activity of three commercially available antibiotics (nadifloxacin, ofloxacin, and sparfloxacin).” for “μg/ml.”

[12] = system: Staphylococcus aureus (Smith); experiment: as above; details: Gram-positive reference strain
Experimental: as §1, with “μg/ml. Anti-bacterial activity of the compound having Formula […] was tested against several Gram-positive reference bacteria strains and compared to the anti-bacterial activity of three commercially available antibiotics (nadifloxacin, ofloxacin, and sparfloxacin).” for “μg/ml.”

[13] = system: Staphylococcus epidermidis (ATCC 12228); experiment: as above; details: ATCC12228, Gram-positive reference strain
Experimental: as §1, with “μg/ml. Anti-bacterial activity of the compound having Formula […] was tested against several Gram-positive reference bacteria strains and compared to the anti-bacterial activity of three commercially available antibiotics (nadifloxacin, ofloxacin, and sparfloxacin).” for “μg/ml.”

[14] = system: Streptococcus faecalis (ATCC 29212); experiment: as above; details: Enterococcus faecalis, ATCC29212, Gram-positive reference strain
Experimental: as §1, with “μg/ml. Anti-bacterial activity of the compound having Formula […] was tested against several Gram-positive reference bacteria strains and compared to the anti-bacterial activity of three commercially available antibiotics (nadifloxacin, ofloxacin, and sparfloxacin).” for “μg/ml.”

[15] = system: Streptococcus faecalis (IFO 12964); experiment: as above; details: Enterococcus faecalis, IFO12964, Gram-positive reference strain
Experimental: as §1, with “μg/ml. Anti-bacterial activity of the compound having Formula […] was tested against several Gram-positive reference bacteria strains and compared to the anti-bacterial activity of three commercially available antibiotics (nadifloxacin, ofloxacin, and sparfloxacin).” for “μg/ml.”

[16] = system: Streptococcus pneniae (IID 554); experiment: as above; details: IID554, Gram-positive reference strain
Experimental: as §1, with “μg/ml. Anti-bacterial activity of the compound having Formula […] was tested against several Gram-positive reference bacteria strains and compared to the anti-bacterial activity of three commercially available antibiotics (nadifloxacin, ofloxacin, and sparfloxacin).” for “μg/ml.”

[17] = system: Streptococcus pneumoniae (IID 553); experiment: as above; details: IID553, Gram-positive reference strain
Experimental: as §1, with “μg/ml. Anti-bacterial activity of the compound having Formula […] was tested against several Gram-positive reference bacteria strains and compared to the anti-bacterial activity of three commercially available antibiotics (nadifloxacin, ofloxacin, and sparfloxacin).” for “μg/ml.”

[18] = system: Streptococcus pyogenes (Cook); experiment: as above; details: Gram-positive reference strain
Experimental: as §1, with “μg/ml. Anti-bacterial activity of the compound having Formula […] was tested against several Gram-positive reference bacteria strains and compared to the anti-bacterial activity of three commercially available antibiotics (nadifloxacin, ofloxacin, and sparfloxacin).” for “μg/ml.”

[19] = system: Streptococcus pyogenes (IID 698); experiment: as above; details: IID698, Gram-positive reference strain
Experimental: as §1, with “μg/ml. Anti-bacterial activity of the compound having Formula […] was tested against several Gram-positive reference bacteria strains and compared to the anti-bacterial activity of three commercially available antibiotics (nadifloxacin, ofloxacin, and sparfloxacin).” for “μg/ml.”

[20] = system: Clostridium perfringens (KZ 210); experiment: microbe, parasite or virus in culture
[21] = system: Peptostreptococcus micros (GIFU 7824); experiment: In vitro anti-bacterial activity (MIC90), anaerobic bacteria; details: Parvimonas micra, anaerobic reference bacteria
[22] = system: Peptostreptococcus magnum (GAI 0664); experiment: as above; details: anaerobic reference bacteria
[23] = system: Propionibacterium acnes (GAI 5419); experiment: as above; details: Cutibacterium acnes, anaerobic reference bacteria
[24] = system: Propionibacterium acnes (ATCC 6919); experiment: as above; details: Cutibacterium acnes, ATCC6919, anaerobic reference bacteria
[25] = system: Propionibacterium acnes (ATCC 11828); experiment: as above; details: Cutibacterium acnes, ATCC11828, anaerobic reference bacteria
[26] = system: Bacteroides fragillis (GAI 0675); experiment: as above; details: anaerobic reference bacteria
[27] = system: Bacteroides thetaiotaomicron (GAI 0659); experiment: as above
[28] = system: Bacteroides vulgatus (GAI 0673); experiment: as above; details: Phocaeicola vulgatus, anaerobic reference bacteria
[29] = system: Veillonella parvula (GAI 5602); experiment: as above; details: anaerobic reference bacteria

Compound | MIC90 [1] [µg/mL] | MIC90 [2] [µg/mL] | MIC90 (Escherichia coli (O-1)) [µg/mL] | MIC90 [3] [µg/mL] | MIC90 [4] [µg/mL] | MIC90 (Proteus rettgeri) [µg/mL] | MIC90 [5] [µg/mL] | MIC90 [6] [µg/mL] | MIC90 [7] [µg/mL] | MIC90 (Shigella flexneri (2b)) [µg/mL] | MIC90 [8] [µg/mL] | MIC90 [9] [µg/mL] | MIC90 [10] [µg/mL] | MIC90 [11] [µg/mL] | MIC90 [12] [µg/mL] | MIC90 [13] [µg/mL] | MIC90 [14] [µg/mL] | MIC90 [15] [µg/mL] | MIC90 [16] [µg/mL] | MIC90 [17] [µg/mL] | also measured
N[C@@H]1CCCCN(c2c(F)cc3c(=O)c(C(=O)O)cn(C4CC4)c3c2Cl)C1 [Compound Having Formula IV] | 0.39 | 0.39 | 0.1 | 0.024 | 0.1 | 0.39 | 1.56 | 1.56 | 0.2 | 0.006 | 0.012 | 0.1 | 0.05 | 0.012 | 0.006 | 0.05 | 0.2 | 0.1 | 0.2 | 0.1 | MIC90 [18]: 0.1 µg/mL; MIC90 [19]: 0.1 µg/mL; MIC90 [20]: 0.2 µg/mL; MIC90 [21]: 0.2 µg/mL; MIC90 [22]: 0.05 µg/mL; MIC90 [23]: 0.2 µg/mL; MIC90 [24]: 0.2 µg/mL; MIC90 [25]: 0.39 µg/mL; MIC90 [26]: 0.1 µg/mL; MIC90 ([27]; Bacteroides thetaiotaomicron (GAI 0659), anaerobic reference bacteria, read-out: MIC90): 0.2 µg/mL; MIC90 [28]: 0.1 µg/mL; MIC90 [29]: 0.1 µg/mL
CC1CCc2c(N3CCC(O)CC3)c(F)cc3c(=O)c(C(=O)O)cn1c23 (stereo not shown) [Nadifloxacin, nadifloxacin] | 0.78 (≈ 2.16 µM) | 1.56 (≈ 4.33 µM) | 0.2 (≈ 0.555 µM) | 0.1 (≈ 0.277 µM) | 0.1 (≈ 0.277 µM) | 0.39 (≈ 1.08 µM) | 6.25 (≈ 17.3 µM) | 3.13 (≈ 8.69 µM) | 1.56 (≈ 4.33 µM) | 0.006 (≈ 0.0166 µM) | 0.006 (≈ 0.0166 µM) | 0.39 (≈ 1.08 µM) | 0.05 (≈ 0.139 µM) | 0.024 (≈ 0.0666 µM) | 0.024 (≈ 0.0666 µM) | 0.1 (≈ 0.277 µM) | 0.78 (≈ 2.16 µM) | 0.78 (≈ 2.16 µM) | 0.78 (≈ 2.16 µM) | 0.78 (≈ 2.16 µM) | MIC90 [18]: 0.78 µg/mL (≈ 2.16 µM); MIC90 [19]: 0.1 µg/mL (≈ 0.277 µM); MIC90 [20]: 0.2 µg/mL (≈ 0.555 µM); MIC90 [21]: 0.39 µg/mL (≈ 1.08 µM); MIC90 [22]: 0.2 µg/mL (≈ 0.555 µM); MIC90 [23]: 0.2 µg/mL (≈ 0.555 µM); MIC90 [24]: 0.2 µg/mL (≈ 0.555 µM); MIC90 [25]: 0.78 µg/mL (≈ 2.16 µM); MIC90 [26]: 1.56 µg/mL (≈ 4.33 µM); MIC90 ([27]; Bacteroides thetaiotaomicron): 1.56 µg/mL (≈ 4.33 µM); MIC90 [28]: 0.78 µg/mL (≈ 2.16 µM); MIC90 [29]: 0.78 µg/mL (≈ 2.16 µM)
